Where two headings read alike, the source gives them in different places. Values belong to the compound of their own block, whether it stands above or below them.
How the values were obtained:
[1] = target: T1, TYK2 (Homo sapiens, UniProt P29597); assay: TYK2 kinase activity, microfluidic assay (Caliper EZ Reader II); assay type: biochemical; conditions: TYK2 1 nM, 1 mM ATP
T1 construct: purchased Carna Biosciences
In short: (§1)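 Human JAK1, JAK2 or TYK2 enzyme was used in 50 mM HEPES, 10 mM MgCl2, 2 mM DTT and 0.01% Brij35, tuned to 10% conversion of a FAM-labelled peptide. Threefold dilutions of compound (top 5 µM, 1% DMSO) were pre-incubated with enzyme for 10 min, and reactions were stopped with EDTA. Phosphorylation was read by microfluidic mobility shift, and IC50 came from percent-inhibition curves.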

[2] = target: T2, Ba/F3-FL-TYK2-P760L cells (Homo sapiens, UniProt P29597, P760L, cells depend on it); assay: Anti-proliferative assay, Ba/F3-FL-TYK2-P760L cells (Cell-Titer Glo); assay type: cell-based; conditions: 72 h, read-out: BaF3-FL-T2P760L IC50
T2 construct: BaF3-FL-T2P760L (nM)
T2 sequence (P29597 whole entry P760L): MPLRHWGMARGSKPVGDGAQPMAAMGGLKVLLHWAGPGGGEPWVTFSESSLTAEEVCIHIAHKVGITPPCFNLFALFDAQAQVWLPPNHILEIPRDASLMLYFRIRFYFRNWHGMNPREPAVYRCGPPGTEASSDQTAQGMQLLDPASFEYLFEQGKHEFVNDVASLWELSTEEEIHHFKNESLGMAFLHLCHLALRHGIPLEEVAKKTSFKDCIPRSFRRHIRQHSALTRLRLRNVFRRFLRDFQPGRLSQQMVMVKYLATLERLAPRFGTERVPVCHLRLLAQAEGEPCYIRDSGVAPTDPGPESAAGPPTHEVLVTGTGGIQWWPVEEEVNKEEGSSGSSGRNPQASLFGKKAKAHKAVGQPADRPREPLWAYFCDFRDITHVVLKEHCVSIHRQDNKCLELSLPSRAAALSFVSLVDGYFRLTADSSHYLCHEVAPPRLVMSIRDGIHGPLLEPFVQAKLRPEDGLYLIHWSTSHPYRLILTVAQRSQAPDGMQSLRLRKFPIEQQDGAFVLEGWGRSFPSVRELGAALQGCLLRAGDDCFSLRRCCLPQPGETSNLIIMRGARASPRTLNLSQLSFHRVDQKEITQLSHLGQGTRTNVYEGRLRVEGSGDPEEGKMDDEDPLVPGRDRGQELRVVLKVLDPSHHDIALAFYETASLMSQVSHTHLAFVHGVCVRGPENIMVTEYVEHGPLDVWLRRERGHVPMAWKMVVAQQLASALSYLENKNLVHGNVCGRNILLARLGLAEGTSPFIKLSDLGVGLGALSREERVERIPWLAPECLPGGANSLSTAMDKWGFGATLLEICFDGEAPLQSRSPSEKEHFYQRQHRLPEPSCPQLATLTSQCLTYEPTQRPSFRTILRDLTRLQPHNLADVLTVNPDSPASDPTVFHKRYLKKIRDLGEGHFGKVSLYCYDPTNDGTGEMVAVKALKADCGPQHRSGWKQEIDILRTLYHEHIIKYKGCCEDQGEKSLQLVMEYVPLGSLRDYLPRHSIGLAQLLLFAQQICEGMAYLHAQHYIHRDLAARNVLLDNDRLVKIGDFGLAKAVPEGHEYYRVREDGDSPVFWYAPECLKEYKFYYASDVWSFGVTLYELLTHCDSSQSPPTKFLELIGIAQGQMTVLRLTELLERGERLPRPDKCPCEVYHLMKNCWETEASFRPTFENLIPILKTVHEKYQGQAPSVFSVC
In short: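 Ba/F3 cells made IL-3-independent by TEL-fused or full-length mutant JAK-family kinases, seeded at 2000/well and dosed after 24 h with 9 three-fold dilutions topping at 20 μM. Viability after 72 h at 37 °C, 5% CO2 by Cell-Titer Glo ATP luminescence.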

[3] = target: T3, JAK2 (Homo sapiens, UniProt O60674); assay: JAK2 kinase activity, microfluidic assay (Caliper EZ Reader II); assay type: biochemical; conditions: JAK2 0.125 nM, 1 mM ATP
T3 construct: purchased Carna Biosciences
T3 sequence (O60674 whole entry): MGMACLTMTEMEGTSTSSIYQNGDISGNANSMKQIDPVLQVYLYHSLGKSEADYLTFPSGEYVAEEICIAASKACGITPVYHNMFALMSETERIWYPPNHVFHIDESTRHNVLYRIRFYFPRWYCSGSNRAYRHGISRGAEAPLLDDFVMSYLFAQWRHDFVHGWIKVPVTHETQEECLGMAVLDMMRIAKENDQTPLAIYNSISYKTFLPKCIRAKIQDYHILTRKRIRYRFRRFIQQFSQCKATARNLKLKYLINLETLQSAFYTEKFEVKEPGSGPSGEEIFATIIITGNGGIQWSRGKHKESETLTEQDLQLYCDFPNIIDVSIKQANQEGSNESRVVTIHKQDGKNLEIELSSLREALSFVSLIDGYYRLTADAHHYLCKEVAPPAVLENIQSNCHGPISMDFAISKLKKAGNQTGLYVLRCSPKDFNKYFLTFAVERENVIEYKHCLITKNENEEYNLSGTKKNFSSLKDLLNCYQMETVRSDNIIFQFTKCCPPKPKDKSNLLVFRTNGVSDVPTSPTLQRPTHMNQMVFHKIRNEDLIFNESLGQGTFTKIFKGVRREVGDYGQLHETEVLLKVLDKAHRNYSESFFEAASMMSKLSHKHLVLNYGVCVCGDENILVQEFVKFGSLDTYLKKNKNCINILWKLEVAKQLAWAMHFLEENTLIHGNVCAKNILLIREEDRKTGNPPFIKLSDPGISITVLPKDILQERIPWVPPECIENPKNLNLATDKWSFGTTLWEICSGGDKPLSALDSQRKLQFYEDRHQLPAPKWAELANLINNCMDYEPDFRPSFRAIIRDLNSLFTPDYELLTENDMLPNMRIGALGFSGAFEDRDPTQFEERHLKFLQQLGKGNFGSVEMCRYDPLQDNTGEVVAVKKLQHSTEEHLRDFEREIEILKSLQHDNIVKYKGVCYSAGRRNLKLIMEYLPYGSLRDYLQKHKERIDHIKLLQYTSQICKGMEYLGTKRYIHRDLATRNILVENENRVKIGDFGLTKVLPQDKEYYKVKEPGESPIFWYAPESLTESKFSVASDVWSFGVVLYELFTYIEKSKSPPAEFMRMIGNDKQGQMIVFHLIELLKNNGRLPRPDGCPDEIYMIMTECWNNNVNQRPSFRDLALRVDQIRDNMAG
In short: as §1

[4] = Hepatocytes metabolic stability assay; assay type: in vitro ADME; conditions: cryopreserved hepatocytes, human hepatocytes, 1.0×10^6 cells/mL; for CLint scaled at 1 μM: read-out: Human hepatocyte Clint(liver); for half-life at 1 μM: read-out: Human hepatocyte stability T1/2
In short: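 Cryopreserved hepatocytes (1.0×10^6 cells/mL final) were incubated with test compound at 1 μM at 37 °C and sampled at 0, 15, 30, 60 and 120 min, with acetonitrile quench and LC-MS/MS. k came from log-linear % remaining versus time, giving T1/2 and CLint.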

[5] = Microsomal metabolic stability assay; assay type: in vitro ADME; conditions: pH 7.4, 0.5 mg/mL protein, 1 μM compound
In short: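 Test article at 1 μM with 0.5 mg/mL microsomal protein and 2 mM NADPH, in 100 mM potassium phosphate pH 7.4 with 1.0 mM EDTA at 37 °C. Sampled at 0–45 min and quantified by LC/MS/MS. T1/2 from the slope of ln % remaining vs time.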

[6] = dog liver microsomes, read-out: Dog LM Clint
[7] = dog liver microsomes, read-out: Dog LM T½
[8] = human liver microsomes, read-out: Human LM Clint
[9] = human liver microsomes, read-out: Human LM T½
[10] = rat liver microsomes, read-out: Rat LM Clint
[11] = rat liver microsomes, read-out: Rat LM T½

T1 sequence (P29597 whole entry): as the sequence (P29597 whole entry P760L) above, with L760P counted along it

SMILES: [2H]C([2H])([2H])NC(=O)c1cnc(NC(=O)C2CC2)cc1Nc1ccc2cnn(CC)c2c1OC [Example 44, 6-(Cyclopropanecarboxamido)-4-((1-ethyl-7-methoxy-1H-indazol-6-yl)amino)-N-(methyl-d3)nicotinamide]
- IC50 [1]: > 5000 nM
- GI50 [2]: 56.2 nM
- IC50 [3]: > 5000 nM
- CLint scaled at 1 μM [4]: 43.1 mL/min/kg
- half-life at 1 μM [4]: 89.4 min
- microsomal CLint at 1 μM [5, 6]: 66.8 µL/min/mg
- half-life at 1 μM [5, 7]: 20.7 min
- microsomal CLint at 1 μM [5, 8]: 19.4 µL/min/mg
- half-life at 1 μM [5, 9]: 71.5 min
- microsomal CLint at 1 μM [5, 10]: 111 µL/min/mg
- half-life at 1 μM [5, 11]: 12.5 min

SMILES: [2H]C([2H])([2H])NC(=O)c1cnc(NC(=O)C2CC2)cc1Nc1ccc2cnn(CC(F)(F)F)c2c1OC [Example 129, 6-(Cyclopropanecarboxamido)-4-((7-methoxy-1-(2,2,2-trifluoroethyl)-1H-indazol-6-yl)amino)-N-(methyl-d3)nicotinamide]
- GI50 [2]: 69.3 nM
- microsomal CLint at 1 μM [5, 6]: 48.6 µL/min/mg
- half-life at 1 μM [5, 7]: 28.5 min
- microsomal CLint at 1 μM [5, 8]: 40 µL/min/mg
- half-life at 1 μM [5, 9]: 34.6 min
- microsomal CLint at 1 μM [5, 10]: 87.4 µL/min/mg
- half-life at 1 μM [5, 11]: 15.9 min

SMILES: [2H]C([2H])([2H])NC(=O)c1cnc(NC(=O)C2CC2)cc1Nc1ccn2ncc(C#N)c2c1OC [Example 165, 4-((3-Cyano-4-methoxypyrazolo[1,5-a]pyridin-5-yl)amino)-6-(cyclopropanecarboxamido)-N-(methyl-d3)nicotinamide]
- IC50 [1]: > 5000 nM
- GI50 [2]: 98.2 nM
- IC50 [3]: > 5000 nM
- CLint scaled at 1 μM [4]: < 7.35 mL/min/kg
- half-life at 1 μM [4]: > 240 min
- microsomal CLint at 1 μM [5, 6]: 14.3 µL/min/mg
- half-life at 1 μM [5, 7]: 99.7 min
- microsomal CLint at 1 μM [5, 8]: 36.9 µL/min/mg
- half-life at 1 μM [5, 9]: 38 min
- microsomal CLint at 1 μM [5, 10]: 43.6 µL/min/mg
- half-life at 1 μM [5, 11]: 32 min

The next lines start with the values.

- GI50 [2]: 33.1 nM
- CLint scaled at 1 μM [4]: < 7.35 mL/min/kg
- half-life at 1 μM [4]: > 240 min
- microsomal CLint at 1 μM [5, 8]: 23.3 µL/min/mg
- half-life at 1 μM [5, 9]: 59.8 min
SMILES: [2H]C([2H])([2H])NC(=O)c1cnc(Nc2ccc(F)cn2)cc1Nc1nn(C)c2ccn(CC)c(=O)c12 [Example 139, 4-((5-Ethyl-1-methyl-4-oxo-4,5-dihydro-1H-pyrazolo[4,3-c]pyridin-3-yl)amino)-6-((5-fluoropyridin-2-yl)amino)-N-(methyl-d3)nicotinamide]

- IC50 [1]: > 5000 nM
- GI50 [2]: 41.6 nM
- IC50 [3]: > 5000 nM
- CLint scaled at 1 μM [4]: 18.5 mL/min/kg
- half-life at 1 μM [4]: 95.2 min
SMILES: [2H]C([2H])([2H])NC(=O)c1cnc(NC(=O)C2CC2)cc1Nc1ncc2cnn(CC)c2c1OC [Example 262, 6-(Cyclopropanecarboxamido)-4-((1-ethyl-7-methoxy-1H-pyrazolo[4,3-c]pyridin-6-yl)amino)-N-(methyl-d3)nicotinamide]

From patent publication US20250115597A1, “TYK2 INHIBITORS AND COMPOSITIONS AND METHODS THEREOF” (LYNK PHARMACEUTICALS CO. LTD., priority 2021, published 2025)
